{"source": "paper PMC3728333", "about": "“Development of an Epidermal Growth Factor Derivative with EGFR Blocking Activity” (PLoS ONE, 2013)", "key": {"MCF-7 cells": {"test_system": "MCF-7 cells", "assay": "Cell proliferation (MTT), MCF-7", "type": "cell-based, human", "conditions": "MCF-7, 20 and 150 nM, 72 h (3 days), medium without FBS, vs untreated", "procedure": "(§1) The optimal cell seeding concentration was previously established for both cell types, as described in the supporting information (Fig S1), in order to maintain the cells in an exponential growth phase along the experiment. The cells were allowed to attach and grow for 72 h in culture medium, then the cells were washed and medium without FBS was added to the cells for 24 h. […] The treatments were removed, and the cells were washed with PBS and incubated for 3 h with 100 μl of fresh culture medium together with 10 μl of MTT (3-(4,5-dimethylthiazol-2-yl)-2,5-diphenyltetrazolium bromide) (Sigma-Aldrich, St. Louis, MO, USA). Medium was discarded and dimethyl sulfoxide (DMSO) (Sigma-Aldrich, St. Louis, MO, USA) was added to each well to dissolve the purple formazan crystals. Plates were agitated at room temperature for 10 min and the absorbance of each well was determined with an absorbance microplate reader (ELx800, BioTek, Winooski, VT, USA) at a wavelength of 570 nm. Three replicates were used for each treatment. The cell viability was determined as a percentage of the untreated control cells, by dividing the mean absorbance of each treatment by the mean absorbance of the untreated cells."}, "Caco-2 cells": {"test_system": "Caco-2 cells", "assay": "Cell proliferation (MTT), Caco-2", "type": "cell-based, human", "conditions": "Caco-2, any concentration tested (10, 20 and 150 nM), 96 h (4 days), medium without FBS, vs untreated", "procedure": "as §1"}, "EGFR [1]": {"test_system": "EGFR", "conditions": "ref [39], [40]; cited from earlier work", "excerpt": "It is known that activated EGFR traffics from the plasma membrane to the cytoplasm through endocytic vesicles. Then, internalized EGFR can be eventually degraded in lysosomes, or recycled to the plasma membrane. Moreover, several reports have identified additional intracellular destinations for the internalized receptor, including ..."}, "EGFR [2]": {"test_system": "EGFR", "conditions": "ref [11], [12], cited from earlier work", "excerpt": "(§2) Our group has previously described that the Potato Carboxypeptidase Inhibitor (PCI) is an antagonist of human EGF. PCI is a 39-residue protein folded into a 27-residue globular core stabilized by three disulfide bonds that adopts the same conformation as EGF, the T-Knot scaffold. This similar structure probably accounts for the antagonistic activity."}, "human cancer cell lines": {"test_system": "human cancer cell lines", "conditions": "several human cancer cell lines; ref [11], [12]; cited from earlier work", "excerpt": "as §2"}, "EGFR [3]": {"test_system": "EGFR", "conditions": "ref [30]; cited from earlier work", "excerpt": "The binding of EGF through the three interaction sites of EGFR shifts the equilibrium between the two distinct EGFR conformations to the untethered one, enabling the dimerization arm in domain II to interact with an identical dimerization arm of another receptor to form the dimer, [14]."}}, "data": [{"compound": "human Epidermal Growth Factor [hEGF]", "values": [{"measurement": "cell proliferation (in words)", "setting": "MCF-7 cells", "result": "proliferative effect"}, {"measurement": "cell proliferation (in words)", "setting": "Caco-2 cells", "result": "moderated but significant proliferative effect"}, {"measurement": "stability of binding to EGFR at pH of endosomes", "setting": "EGFR [1]", "result": "relatively more stable at the pH of endosomes"}]}, {"compound": "Potato Carboxypeptidase Inhibitor (QQHADPICNKPCKTHDDCSGAWFCQACWNSARTCGPYVG; UniProt P01075 1-39, looked up) [PCI, 39-residue protein folded into a 27-residue globular core stabilized by three disulfide bonds]", "values": [{"measurement": "affinity for EGFR (in words)", "setting": "EGFR [2]; earlier work", "result": "very low"}, {"measurement": "EGFR activation", "setting": "EGFR [2]", "result": "inhibited EGFR activation"}, {"measurement": "EGFR down regulation", "setting": "EGFR [2]", "result": "induced the down regulation of the receptor"}, {"measurement": "competition with EGF for binding to EGFR", "setting": "EGFR [2]", "result": "competed with EGF for binding to EGFR"}, {"measurement": "effective concentration compared to EGFt/hEGF (in words)", "setting": "EGFR [2]", "result": "one order of magnitude higher (μM)"}, {"measurement": "anti-proliferative activity in vitro", "setting": "human cancer cell lines", "result": "showed anti-proliferative activity in vitro in several human cancer cell lines"}]}, {"compound": "Cc1ccc(C(=O)Nc2ccc(S(=O)(=O)O)c3cc(S(=O)(=O)O)cc(S(=O)(=O)O)c23)cc1NC(=O)c1cccc(NC(=O)Nc2cccc(C(=O)Nc3cc(C(=O)Nc4ccc(S(=O)(=O)O)c5cc(S(=O)(=O)O)cc(S(=O)(=O)O)c45)ccc3C)c2)c1", "note": "[suramin]", "values": [{"measurement": "interference with hEGF-EGFR interaction", "setting": "EGFR [3]", "result": "prevents hEGF from interacting with EGFR at site 3"}]}, {"compound": "TGF-α: EGFR native ligand", "values": [{"measurement": "stability of binding to EGFR at pH of endosomes", "setting": "EGFR [1]", "result": "rapidly dissociates from the receptor when exposed to the low pH of endosomes"}]}]}
